Source: patent US10889611B2, “Sialyltransferase inhibitors and uses thereof” (Academia Sinica, priority 2015, dated 2021)

Columns and labels:
[1] = system: PANC-1 cells; experiment: MTT assay cytotoxicity, PANC-1 cells; format: cell-based, human; conditions: 1, 5, 10, 25 and 50 μM for 24 and 48 hours, FIG. 6
Method: (§1) The absorbance of the solution at 570 nm was measured by spectrophotometer.
(§2) The cytotoxicity of FCW551 on PANC-1 and LN cells were determined by MTT assay in according to procedures described in the “Materials and Methods” section.

[2] = system: LN cells; experiment: MTT assay cytotoxicity, LN cells; format: cell-based, human; conditions: 1, 5, 10, 25 and 50 μM for 24 and 48 hours, FIG. 6
Method: (§3) The LN cell line was established by orthotopically injected 5×10^5 PANC-1 cells to the pancreas of SCID mice. After one month, mestastasis was found in lymph nodes, cancerous cells were then isolated from lymph nodes. The genomic DNA of the isolated cancer cells from lymph nodes were extracted and sent for genotyping analysis, which confirmed that LN cells were indeed derived from PANC-1 cells (data not shown).
as §1, §2

[3] = system: LN cells; experiment: Migration and invasion analysis, LN cells; format: cell-based, human; conditions: 1 and 20 μM for 24 and 48 hours, FIG. 7
Excerpt: as §3
(§4) Migration assays were done using a transwell, in which a polycarbonate filter pre-coated with Matrigel (8-μm pores, Millicell; Millipore, Billerica, Mass.) was inserted therein. Cells were serum-starved for 24 h and then seeded (5×10^5 cells per upper chamber) and treated with or without the present compound(s) (concentrations as indicated), and the assays were run for 6 h. Cells that had migrated to the underside of the inserted filter were stained with hematoxylin solution. The cells in the upper side of the inserted membrane were rubbed with a cotton swab. The migrated cells on the underside were pictured in a 200× magnification field and quantified.
(§5) In this example, the ability of the FCW551 in suppressing the migration and/or invasion of pancreatic cancer cells was investigated. Briefly, PANC-1 and LN cells were respectively treated with 1 and 20 μM FCW551 for 24 and 48 hours before subjecting to the migration and invasion analysis. Results are illustrated in FIG. 7.

[4] = system: PANC-1 cells; experiment: Migration and invasion analysis, PANC-1 cells; format: cell-based, human; conditions: 1 and 20 μM for 24 and 48 hours, FIG. 7
Method: as §4, §5

## C[C@H](CCC(=O)NCCOCCOCCN=[N+]=[N-])C1CCC2C3CC[C@@H]4C[C@H](NC(=O)[C@H](CC(=O)O)Nc5ccc([N+](=O)[O-])c6nonc56)CC[C@]4(C)C3CC[C@@]21C (stereo partly drawn) [Compound 17, (3S)-4-(((3R,5R,10S,13R)-17-((R)-5-((2-(2-(2-azidoethoxy)ethoxy)ethyl)amino)-5-oxopentan-2-yl)-10,13-dimethylhexadecahydro-1H-cyclopenta[a]phenanthren-3-yl)amino)-3-((7-nitrobenzo[c][1,2,5]oxadiazol-4-yl)amino)-4-oxobutanoic acid]
[1]
  cytotoxicity: no significant cytotoxicity
[2]
  cytotoxicity: no significant cytotoxicity
[3]
  invasion ability: greatly suppressed
  migration ability: greatly suppressed
[4]
  invasion ability: greatly suppressed
  migration ability: greatly suppressed
other
  melting point: 90 to 91 °C
